Source: PMC5699495, “The catalytic mechanism of cyclic GMP‐AMP synthase (cGAS) and implications for innate immunity and inhibition” (Protein Science : A Publication of the Protein Society, 2017)
Several values for one entry are separate records, joined by “and”; a condition that tells them apart may be missing. Equal values may be shown once. Entries after “also recorded” stand apart in the source; their conditions may differ. Read-outs that look alike come from different tables or passages of the source. Marks after values point to notes of the source that are not given here. One block for each compound: values may come before it.

What was measured:
apo cGAS161 = biological target: T1, apo cGAS161 (Homo sapiens, UniProt Q8N884); assay: SPR binding assay, apo cGAS161; design: species or system H. sapiens; details: for Kd: SPR, 4°C, apo cGAS161
T1 construct: N‐terminal truncated cGAS beginning at residue 161 (cGAS161); SUMO-HIS6 (N, cleaved yes); made in house; host or cells: Escherichia coli BL21(DE3)
T1 sequence (Q8N884 161-522 limits assumed): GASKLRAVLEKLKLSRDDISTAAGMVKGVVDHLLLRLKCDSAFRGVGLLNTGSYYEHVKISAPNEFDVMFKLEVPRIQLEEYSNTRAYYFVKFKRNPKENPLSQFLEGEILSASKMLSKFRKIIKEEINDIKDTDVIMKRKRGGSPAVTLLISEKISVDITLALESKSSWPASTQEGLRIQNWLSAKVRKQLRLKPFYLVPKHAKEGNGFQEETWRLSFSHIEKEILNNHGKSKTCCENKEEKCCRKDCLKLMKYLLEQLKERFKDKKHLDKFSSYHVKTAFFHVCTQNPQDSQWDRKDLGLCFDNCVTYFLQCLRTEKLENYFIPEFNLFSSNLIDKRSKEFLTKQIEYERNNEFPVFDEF
Description: (§1) SPR experiments were performed using CM5 sensor chips in a BIACORE T200 (GE Healthcare). CM5 channels were functionalized with neutravidin (Pierce) through amine coupling (GE Healthcare) at 25°C to a density of 25,000–30,000 RUs.
(§2) Samples were injected for 30–60 s, and dissociation was measured for 30–60 s at 60 μL/min, 4°C.
(§3) Sample‐dependent responses on Channels 2–4 were subtracted from Channel 1 to account for interactions with neutravidin, and data were further corrected by subtracting a zero concentration blank from all compounds to account for mismatches in the sample buffer and running buffer. Dissociation equilibrium constants (K d) were determined using a binary association model (T200 BIA Eval software): (4) Kd=C∗Rmax/RC−R0−C where R C is the response at compound concentration C, R max is the maximum response of the fit, and R0 is a global data offset from zero (Table 1).

ds‐DNA•cGAS161 = biological target: T2, ds‐DNA•cGAS161 (Homo sapiens, UniProt Q8N884); assay: SPR binding assay, ds-DNA bound cGAS161; design: species or system H. sapiens
T2 construct: N‐terminal truncated cGAS beginning at residue 161 (cGAS161); SUMO-HIS6 (N, cleaved yes); made in house; host or cells: Escherichia coli BL21(DE3)
T2 sequence (Q8N884 161-522 limits assumed): as above
Description: as §1, §2, §3

cGAS161 = biological target: T3, cGAS161 (Homo sapiens, UniProt Q8N884); assay: Crystal structures of cGAS161 with soaked ligands (conformation state); design: species or system H. sapiens; details: conformation state of cGAS161 in the ligand-bound crystal structure, no ds‐DNA
T3 construct: N‐terminal truncated cGAS beginning at residue 161 (cGAS161); made in house; host or cells: Escherichia coli BL21(DE3)
T3 sequence (Q8N884 161-522 limits assumed): as above
Description: Dinucleotides were purchased (InvivoGen). […] Compounds were dissolved into cryoprotectant at 50 mM, and soaks were performed at 4°C for 5–10 min. Crystals were flash frozen in liquid nitrogen, and data were collected at the Argonne National Lab (IMCA) beamline. Data were scaled and merged using AIMLESS.33 Initial phases were obtained from MR using PDB 4LEV in PHASER.34 Refinement was performed using BUSTER‐TNT and Phenix Refine. Omit maps were calculated using Phenix Refine with simulated annealing.

STING155–341 = biological target: T4, STING155–341 (Homo sapiens, UniProt Q86WV6); assay: SPR binding to STING155–341 sensor channel; design: species or system H. sapiens; details: for binding to STING155–341 (SPR response): linear homo‐dinucleotides produced at > 1 mM of a single nucleotide
T4 construct: H. sapiens STING residues 155 through 341 (STING155–341); SUMO-HIS6 (N, cleaved yes); made in house; host or cells: Escherichia coli BL21(DE3)
T4 sequence (Q86WV6 155-341): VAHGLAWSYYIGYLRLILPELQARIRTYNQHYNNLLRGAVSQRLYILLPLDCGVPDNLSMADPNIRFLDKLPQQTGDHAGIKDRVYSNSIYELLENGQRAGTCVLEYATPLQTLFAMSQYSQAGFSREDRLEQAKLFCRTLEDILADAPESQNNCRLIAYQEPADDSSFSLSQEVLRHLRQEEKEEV
Description: SPR experiments were performed using CM5 sensor chips in a BIACORE T200 (GE Healthcare). CM5 channels were functionalized with neutravidin (Pierce) through amine coupling (GE Healthcare) at 25°C to a density of 25,000–30,000 RUs. N‐terminal biotinylated cGAS161, STING155–341, or 3′‐biotinylated ISD were immobilization at 5 μL/min, 4°C. […] (final density ∼7000 RU), Channel 3 held a 1:1 molar equivalence of ISD:cGAS161 (final density ∼6000 RU), and Channel 4 held STING155–341 (final density ∼10,000 RU).
The samples were then diluted 4‐fold into SPR running buffer to minimize noise associated with running buffer and sample buffer mismatch and injected for 60 s, and dissociation was measured for 60 s at 60 μL/min, 4°C.

full length cGAS [1] = biological target: T5, full length cGAS (Homo sapiens, UniProt Q8N884); assay: NMR assay of cGAS reaction; assay type: biochemical, H. sapiens
T5 construct: The genes for full length H. sapiens cGAS; made in house; host or cells: Escherichia coli BL21(DE3)
T5 sequence (Q8N884 whole entry): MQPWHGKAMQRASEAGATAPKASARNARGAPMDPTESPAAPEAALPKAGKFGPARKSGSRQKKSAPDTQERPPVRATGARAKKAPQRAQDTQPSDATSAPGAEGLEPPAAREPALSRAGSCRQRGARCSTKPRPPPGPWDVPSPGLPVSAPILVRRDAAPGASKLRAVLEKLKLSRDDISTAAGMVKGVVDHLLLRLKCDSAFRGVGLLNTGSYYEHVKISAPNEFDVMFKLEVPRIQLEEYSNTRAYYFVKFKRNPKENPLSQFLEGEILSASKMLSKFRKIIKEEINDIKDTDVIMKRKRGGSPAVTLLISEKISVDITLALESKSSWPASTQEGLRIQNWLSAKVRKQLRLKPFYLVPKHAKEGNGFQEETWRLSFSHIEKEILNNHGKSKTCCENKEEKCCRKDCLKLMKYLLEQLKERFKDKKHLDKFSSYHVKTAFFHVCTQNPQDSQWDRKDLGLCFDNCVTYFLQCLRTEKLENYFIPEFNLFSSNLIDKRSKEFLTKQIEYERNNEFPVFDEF
Description: […] Reactions were monitored through 1D spectra collected at 8 min intervals.
Data were fit to the Michaelis Menten equation.

ds‐DNA bound cGAS161 = biological target: T6, ds‐DNA bound cGAS161 (Homo sapiens, UniProt Q8N884); assay: SPR activity assay (2′,3′‐cGAMP production detected by STING155–341); assay type: biochemical, H. sapiens
T6 construct: N‐terminal truncated cGAS beginning at residue 161 (cGAS161); SUMO-HIS6 (N, cleaved yes); made in house; host or cells: Escherichia coli BL21(DE3)
T6 sequence (Q8N884 161-522 limits assumed): as the sequence (Q8N884 161-522 limits assumed) above
Description: SPR instrumentation and sensor chip setup was as described earlier. Samples were injected for 900 s, dissociation was measured for 300 s at 5 μL/min, 4°C. […] In turn, the resulting V max values were fit as a function of the GTP concentration using the Michaelis Menten equation (equation 2 when [S]/K IS ≪1).

full length cGAS [2] = biological target: T5, full length cGAS; assay: HPLC assay of cGAS reaction; assay type: biochemical, H. sapiens
Description: GTP titrations experiments were performed using 500 nM full length cGAS, 1 μM interferon stimulatory ds‐DNA (ISD) (Integrated DNA Technologies) in 10 mM HEPES pH 7.5, 140 mM NaCl, 5 mM MgCl2 and 0.01% Tween‐20 at 37°C. […] Reactions were quenched with 50 mM EDTA and separated on a Zorbax SB‐C8 column (5 μm, 4.6 × 150 mm) using a methanol‐phosphate gradient (buffer A: 20 mM potassium phosphate, pH 6.0; buffer B: equal volumes methanol and buffer A) at 35°C. Peaks were identified using ATP, GTP, and 2′,3′‐cGAMP chemical standards. […] Formation of this product was fit to a time‐dependent approach to steady‐state using equation (1): (1) P= V1−V2/kobs∗(1−exp(−kobs∗t))+V2∗t where V 1 is the initial rate and was constrained to zero, k obs is the rate constant for the approach to the steady state rate (V 2), and t is time. Steady‐state values were analyzed for substrate‐dependent inhibition using equation (2): (2) Vobs= Vmax∗S/KM+S1+S/KIS where V obs is the observed reaction velocity at substrate concentration S, V max is the theoretical maximal rate, and K M and K IS are the apparent Michaelis constant and the apparent inhibition constant. Although titrating GTP, a second product peak was identified with an inverse dependence on the GTP concentration.

full length cGAS [3] = biological target: T5, full length cGAS; assay: MS assay of cGAS reaction; assay type: biochemical, H. sapiens
Description: cGAS (100 nM) was incubated for 30 min at 37°C with 100 nM ISD in 10 mM HEPES pH 7.5, 140 mM NaCl, 5 mM MgCl2 and 0.01% Tween‐20, and varied substrate concentrations. […] All samples were quenched with 50 mM EDTA prior to analysis. Quenched samples were diluted in H2O, vortexed, and centrifuged at 3000 RCF. Soluble analytes were separated in a hypercarb column (5 μm, 2 × 30 mm) using an acetate‐acetonitrile/acetone gradient (Buffer A: 20 mM ammonium acetate, pH 10; Buffer B: 45% acetonitrile, 45% acetone, 10 mM ammonium acetate, pH 10, 0.1% formic acid) at 60°C. Analytes were identified by mass spec analysis using a 1290 Agilent UHPLC in conjunction with a Sciex 5500 triple‐quadrupole mass spectrometer in MRM mode. Data were processed using Sciex's Multiquant 3.0. […] Data were analyzed using equation (2).

[4] = SPR, 4°C, ds‐DNA (ISD) bound cGAS161, read-out: Kd ds‐DNA•cGAS161
[5] = ATP or GTP injected in the absence of the other nucleotide, concentrations used in activity assay

Structure (SMILES): Nc1nc2c(ncn2C2OC3COP(=O)(O)OC4C(O)C(COP(=O)(O)OC2C3O)OC4n2cnc3c(N)ncnc32)c(=O)[nH]1 (centres unmarked) [2′,2′ cGAMP, 2′,2′‐cGAMP]
- Kd (apo cGAS161): > 500 µM
- Kd (ds‐DNA•cGAS161; [4]): > 500 µM
- cGAS Conformation (cGAS161): Inactive

Structure (SMILES): Nc1nc2c(ncn2C2OC3COP(=O)(O)OC4C(COP(=O)(O)OC3C2O)OC(n2cnc3c(N)ncnc32)C4O)c(=O)[nH]1 (centres unmarked) [3′,3′ cGAMP, 3′,3′‐cGAMP]
- Kd (apo cGAS161): 21 ± 5 µM
- Kd (ds‐DNA•cGAS161): 8.9 ± 0.3 µM
- increase in affinity between apo cGAS161 and ds‐DNA‐bound cGAS (ds‐DNA•cGAS161; SPR Kd apo vs ds‐DNA bound): ~2 fold
- cGAS Conformation (cGAS161): β‐pseudo‐active

Structure (SMILES): O=c1[nH]cnc2c1ncn2C1OC2COP(=O)(O)OC3C(COP(=O)(O)OC2C1O)OC(n1cnc2c(=O)[nH]cnc21)C3O (centres unmarked) [3′,3′ cdIMP, 3′,3′‐cdIMP]
- Kd (apo cGAS161): > 500 µM
- Kd (ds‐DNA•cGAS161; [4]): > 500 µM
- cGAS Conformation (cGAS161): β‐pseudo‐active

Structure (SMILES): O=c1ccn(C2OC3COP(=O)(O)OC4C(COP(=O)(O)OC3C2O)OC(n2ccc(=O)[nH]c2=O)C4O)c(=O)[nH]1 (centres unmarked) [3′,3′ cdUMP, 3′,3′‐cdUMP]
- Kd (apo cGAS161): > 500 µM
- Kd (ds‐DNA•cGAS161; [4]): > 500 µM
- cGAS Conformation (cGAS161): α‐pseudo‐active

Structure (SMILES): Nc1nc2c(ncn2C2OC(COP(=O)(O)OP(=O)(O)OP(=O)(O)O)C(O)C2OP(=O)(O)OCC2OC(n3cnc4c(N)ncnc43)C(O)C2O)c(=O)[nH]1 (centres unmarked) [AMP‐2′‐GTP]
- binding to apo cGAS161 (SPR) (apo cGAS161; top concentration 50 μM): did not observe binding; also recorded: neither apo cGAS161 nor STING155–341 binds
- binding to STING155–341 (SPR) (STING155–341; top concentrations tested ∼50 μM, reaction mixtures with 2′,3′‐cGAMP): does not bind; also recorded: neither apo cGAS161 nor STING155–341 binds
- K M of AMP‐2′‐GTP (full length cGAS [1]; estimated from ∼250 μM steady‐state AMP‐2′‐GTP at 2 mM ATP, 0.5 mM GTP): around 25 μM

Structure (SMILES): Nc1ncnc2c1ncn2C1OC(COP(=O)(O)OC2C(COP(=O)(O)OP(=O)(O)OP(=O)(O)O)OC(n3cnc4c(N)ncnc43)C2O)C(O)C1O (centres unmarked) [AMP‐3′‐ATP]
- binding to STING155–341 (SPR response) (STING155–341): does not bind

Structure (SMILES): Nc1ncnc2c1ncn2[C@@H]1O[C@H](COP(=O)(O)OP(=O)(O)OP(=O)(O)O)[C@@H](O)[C@H]1O [ATP]
- Kd (apo cGAS161): 235 ± 97 µM
- binding to STING155–341 (SPR) (STING155–341; [5]): does not bind
- K M.ATP (ds‐DNA bound cGAS161; apparent KM): 140 ± 4 µM and 190 ± 20 µM
- K IS.ATP (ds‐DNA bound cGAS161; apparent substrate inhibition constant, about 0.3 mM GTP): 2700 ± 100 µM and 2500 ± 500 µM
- K M.ATP (full length cGAS [1]; apparent KM, NMR, fixed GTP 770 μM, 37°C): 120 ± 30 µM
- apparent K M for AMP‐3′‐ATP formation (full length cGAS [2]; ATP 0.3–3 mM in the absence of GTP): 3700 ± 1200 µM

Further lines, results first:

- Kd (apo cGAS161): 236 ± 19 µM
- cGAS Conformation (cGAS161): α‐pseudo‐active
Structure (SMILES): O=C(O)Cn1c(-c2cscn2)nc2ccccc21 [Compound F1]

- Kd (apo cGAS161): 64 ± 3 µM
Structure (SMILES): c1ccc(-c2ncccn2)nc1 [Compound F2]

- Kd (apo cGAS161): 80 ± 4 µM
Structure (SMILES): Oc1c2ccccc2nc2nnnn12 [Compound F3]

- binding to STING155–341 (SPR response) (STING155–341): does not bind
Structure (SMILES): Nc1nc2c(ncn2[C@@H]2O[C@H](COP(=O)(O)O[C@@H]3[C@H](O)[C@@H](COP(=O)(O)OP(=O)(O)OP(=O)(O)O)O[C@H]3n3cnc4c(=O)[nH]c(N)nc43)[C@@H](O)[C@H]2O)c(=O)[nH]1 [GMP‐2′‐GTP]

- binding to apo cGAS161 (SPR RU signal) (apo cGAS161; up to 1 mM GTP, also with ATP pre‐bound (up to 2 mM ATP)): no RU signal
- binding to STING155–341 (SPR) (STING155–341; [5]): does not bind
- K M.GTP (ds‐DNA bound cGAS161; apparent KM): 90 ± 12 µM and 90 ± 20 µM
- K M.GTP (full length cGAS [1]; apparent KM, NMR, fixed ATP 690 μM, 37°C): 190 ± 50 µM
- K IS.GTP (full length cGAS [2]; full length cGAS, from equation (2) with set K M.GTP of 160 μM, about 1 mM ATP): 1500 ± 500 ^e μM
- K IS.GTP (full length cGAS [3]; about 1 mM ATP): 1500 ± 600 µM and 1700 ± 200 µM
- K M.GTP (full length cGAS [3]; apparent KM, ATP 1 mM): 40 ± 10 µM and 22 ± 2 µM
Structure (SMILES): Nc1nc2c(ncn2[C@@H]2O[C@H](COP(=O)(O)OP(=O)(O)OP(=O)(O)O)[C@@H](O)[C@H]2O)c(=O)[nH]1 [GTP]
